# From article PMC4236121 (PLoS ONE, 2014)
# Where no end group is shown, it is not given here.
# Molecular target: T1, DQ8 protein (HLA-DQ8: DQA1*03:01/DQB1*03:02) (Homo sapiens, UniProt P01909+P01920, A209T/A45G/C70Q/D89A/DUP78-78/E183D/E77G/F237L/G63E/H199R/I129T/K197E/L178F/L74F/L98V/Q57E/Q76R/S185I/S97I/T217I/T49S/V73L/Y58L)
# T1 construct: made in house; host or cells: insect cells (Drosophila S2 is named only for the biotinylated tetramer preparation)
# Test: Peptide binding competition
# Settings: not given
# Protocol: Recombinant DQ8 protein was produced as previously described. Briefly, soluble DQ8 was purified from insect cell culture supernatants by affinity chromatography and dialyzed against citric/phosphate storage buffer, pH 5.4. For the preparation of HLA class II tetramers, DQ8 protein was in vivo biotinylated in Drosophila S2 cells prior to harvest and dialyzed into citric/phosphate buffer. The biotinylated monomer was loaded with 0.2 mg/ml of peptide by incubating at 37°C for 72 h in the presence of 0.2 mg/ml n-Dodecyl-β-maltoside and 1 mM Pefabloc SC (Sigma–Aldrich, St. Louis, MO). Peptide loaded monomers were subsequently conjugated into tetramers using R-PE streptavidin (Biosource International, Camarillo, CA) at a molar ratio of 8∶1.
# Peptide binding curves were simulated by non-linear regression with Prism software (Version 5, GraphPad Software Inc.) using a sigmoidal dose–response curve.
row,Compound,IC50
1,CSCC[C@H](NC(=O)[C@H](CC(=O)O)NC(=O)[C@H](CC(C)C)NC(=O)CNC(=O)[C@@H](NC(=O)[C@H](CO)NC(=O)[C@H](CC(C)C)NC(=O)[C@H](CCC(N)=O)NC(=O)[C@H](CC(N)=O)NC(=O)[C@H](Cc1ccccc1)NC(=O)[C@H](Cc1ccc(O)cc1)NC(=O)[C@H](CCCNC(=N)N)NC(=O)[C@@H]1CCCN1)[C@@H](C)O)C(=O)N[C@H](C(=O)NCC(=O)O)C(C)C [GAD65 176–190],> 50000 nM
2,"TAKAMEQMAGSSEQAAEAME [H1MP185–204, reference compound]",1400 nM
3,TYEIAPVFVLLEYVT [GAD65 206–220],1500 nM

# Same assay, conditions: competition with 0.04 µM biotinylated GAD65_250–266 index peptide in wells coated with recombinant DQ8 protein; europium-streptavidin, time resolved fluorometer; sigmoidal dose-response fit; read-out: IC50 (binding to DQ8)
row,Compound,IC50
1,YIPPSLRTLEDNEE [GAD65 508–521],> 50000 nM
2,YVVKSFDRSTKVIDFHYPNE [GAD65 121–140],1600 nM
3,FQQDKHYDLSYDTGD [GAD65 427–441],> 50000 nM
4,AKGTTGFEAHVDKCL [GAD65 461–475],> 50000 nM
